Results reported in patent US11596636B2, “Tailored combinatorial epigenetic therapies for P53 gain-of-function tumors” (The Trustees of the University of Pennsylvania, priority 2014, dated 2023).
pIC50: −log10 of the molar value.

Experiments:
[1] = target: T1, menin-MLL1 interaction in MDAH087 cells (p53 GOF) (Homo sapiens, UniProt O00255); assay: Endogenous co-IP of Menin and MLL1 in LFS MDAH087 cells; assay type: cell-based; settings: different concentrations, vs DMSO
T1 construct: endogenous in cells; host or cells: LFS MDAH087 (p53 R248W) and MDAH041 (p53 null) cells
T1 sequence (O00255 1-610): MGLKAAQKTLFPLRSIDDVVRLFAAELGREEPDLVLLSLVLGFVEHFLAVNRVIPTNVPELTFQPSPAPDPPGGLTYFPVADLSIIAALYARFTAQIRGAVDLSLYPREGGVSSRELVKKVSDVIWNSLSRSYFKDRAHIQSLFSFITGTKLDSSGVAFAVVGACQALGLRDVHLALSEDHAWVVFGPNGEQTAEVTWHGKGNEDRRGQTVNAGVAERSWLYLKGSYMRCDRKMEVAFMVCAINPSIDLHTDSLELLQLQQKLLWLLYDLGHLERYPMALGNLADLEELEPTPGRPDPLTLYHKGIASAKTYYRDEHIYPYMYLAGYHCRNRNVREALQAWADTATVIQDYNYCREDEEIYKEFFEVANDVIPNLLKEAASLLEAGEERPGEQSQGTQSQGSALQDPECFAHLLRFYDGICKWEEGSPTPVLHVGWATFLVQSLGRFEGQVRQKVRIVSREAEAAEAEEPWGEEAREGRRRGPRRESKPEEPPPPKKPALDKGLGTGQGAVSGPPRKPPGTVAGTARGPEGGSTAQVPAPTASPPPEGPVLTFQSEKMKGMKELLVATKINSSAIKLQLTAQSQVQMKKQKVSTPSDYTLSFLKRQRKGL
Experimental: (FIG. 10A) Endogenous co-IP of Menin and MLL1 in LFS MDAH087 cells upon treatment of DMSO or different concentrations of ISC-30. (FIG. 10B) & (FIG. 10C) Growth curve analysis of LFS (FIG. 10B) MDAH087 and (FIG. 10C) MDAH041 cells treated with DMSO, […] ISC-30 Menin inhibitor. (FIG. 10D) & (FIG. 10E) Growth curve analysis of LFS (FIG. 10D) MDAH087 and (FIG. 10E) MDAH041 cells treated with DMSO, […], or 20 μM MI-2-2 Menin inhibitor. (FIG. 10F) and (FIG. 10G) Growth curve analysis of LFS (FIG. 10F) MDAH087 and (FIG. 10G) MDAH041 cells treated with DMSO, 2 μM, or 4 μM OICR-9429 WDR5 inhibitor.
Flag tagged ETS2 protein was expressed in HEK293T cells, which was then subjected to immunoprecipitation with Flag antibody conjugated Dynabeads. Then after washes, HA tagged WT or GOF p53 (generated by in vitro translation method (Thermo #88881)) was added to co-immunoprecipitate with Flag-ETS2. Endogenous co-IP experiments were performed in buffer containing: 20 mM Tris, pH 8.0, 137 mM NaCl, 1 mM MgCl2, 1 mM CaCl2, 1% NP-40, 10% glycerol, plus complete protease and phosphatase inhibitor (without EDTA), plus 12.5 U/ml benzonase (Novagen, 70746).

[2] = test system: Hoxa cluster genes in AT-1 cells (MLL-AF9 leukemia cell line); assay: HoxA5 and HoxA9 mRNA levels in AT-1 cells; assay type: cell-based, mouse; settings: after 2 days of treatment, vs DMSO
Experimental: (§1) FIG. 15, comprising FIG. 15A through FIG. 15G, depicts the results of example experiments. (FIG. 15A) Chemical structure of ISC-30 compound [N,N′-bis(4-aminophenyl)-N,N′-dimethylethylenediamine]. (CID: 193110, NCI: 129674, Chemical formula: C16H22N4 Molecular weight: 270.37) (FIG. 15B) His-SUMO-MeninΔ460-519 (Menin) was titrated into wells containing fluorescence polarization buffer and FITC-MLL peptide (1.5 nM) to allow fluorescence polarization monitoring and calculation of the binding affinity. (FIG. 15C) Wild-type (WT) or Mutant (Mut) competitor MLL peptides were titrated into wells containing fluorescence polarization butter, His-SUMO-MeninΔ460-519 (5 nM), and FITC-MLL peptide (1.5 nM) and the inhibition of fluorescence polarization was monitored and utilized to normalize the ISC30 inhibition. All measurements were blanked by subtracting the background signal taken from wells containing only buffer. mP=millipolarization. (FIG. 15D) Peptide displacement assay measuring ISC-30 inhibition of menin-MLL1 interaction by the decrease in fluorescence polarization (FP) signal of a FITC labeled MLL1 peptide upon ISC-30 induced dissociation from menin. (FIG. 15E) HoxA5 and HoxA9 mRNA levels after 2 days of ISC-30 or DMSO (vehicle control) treatment in AT-1 cells (mouse MLL-AF9 leukemia cell line). (FIG. 15F) Growth analysis of AT-1 cells treated with DMSO or 10 μM ISC-30. […]

[3] = target: T2, menin-MLL1 interaction in MDAH041 cells (p53 null) (Homo sapiens, UniProt O00255); assay: Endogenous co-IP of Menin and MLL1 in LFS MDAH041 cells; assay type: cell-based; settings: different concentrations, vs DMSO
T2 construct: endogenous in cells; host or cells: LFS MDAH087 (p53 R248W) and MDAH041 (p53 null) cells
T2 sequence (O00255 1-610): T1 sequence (O00255 1-610)

MDAH041 cells (p53 null) = assay: Growth curve analysis of LFS MDAH041 cells; assay type: cell-based, human; settings: OICR-9429 2 μM or 4 μM, vs DMSO
Experimental: (§2) (FIG. 10A) Endogenous co-IP of Menin and MLL1 in LFS MDAH087 cells upon treatment of DMSO or different concentrations of ISC-30.
(§3) Li-Fraumeni Syndrome cell lines MDAH087 and MDAH041 were obtained from Dr. Michael A. Tainsky (Wayne State University, Detroit, Mich.) as a kind gift, and were cultured at 3% oxygen, in standard tissue culture medium.
(§4) 200,000 cells were seeded on 950 mm^2 surface area (one well of 6-well plate) on Day 0. Cell number was measured every two days with Countess Automated Cell Counter (Life Technologies) following its standard procedure, and then 200,000 cells were plated back for the next counting. For shRNA mediated knockdown experiments, cells were seeded seven days after the initial infection of shRNA-containing lentivirus, during which puromycin selection was completed and cells were already put back to normal growth medium. For small compound inhibitor treatment experiments, inhibitors were added on Day 0 as cells were seeded and refreshed every other day as cells were counted and plated back.

[4] = target: T3, menin-MLL1 interaction (His-SUMO-Menin-Δ460-519, FITC-MLL peptide) (Homo sapiens, UniProt O00255, DEL460-519); assay: Fluorescence polarization competition assay, FITC-MLL peptide displacement from menin; assay type: binding; settings: FITC-MLL peptide 1.5 nM, His-SUMO-Menin-Δ460-519 5 nM
T3 construct: made in house; host or cells: Rosetta (DE3-pLysS) E. coli
T3 sequence (O00255 with tags, fused parts or gaps DEL460-519): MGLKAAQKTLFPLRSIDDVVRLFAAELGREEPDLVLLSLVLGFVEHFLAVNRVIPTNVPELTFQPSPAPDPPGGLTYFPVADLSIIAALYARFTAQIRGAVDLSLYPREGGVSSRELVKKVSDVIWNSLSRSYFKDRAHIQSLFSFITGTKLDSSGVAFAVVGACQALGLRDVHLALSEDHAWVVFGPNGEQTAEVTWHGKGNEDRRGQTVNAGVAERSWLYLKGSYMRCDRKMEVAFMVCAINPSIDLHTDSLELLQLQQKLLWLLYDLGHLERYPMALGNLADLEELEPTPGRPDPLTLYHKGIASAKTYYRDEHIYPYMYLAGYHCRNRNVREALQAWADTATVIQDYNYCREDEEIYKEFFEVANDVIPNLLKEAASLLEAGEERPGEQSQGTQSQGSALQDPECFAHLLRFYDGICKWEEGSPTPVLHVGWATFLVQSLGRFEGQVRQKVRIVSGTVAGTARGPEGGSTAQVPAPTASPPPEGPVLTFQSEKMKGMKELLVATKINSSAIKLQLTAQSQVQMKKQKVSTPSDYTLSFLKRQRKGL
Experimental: as §1, with “menin.” for “menin. (FIG. 15E) HoxA5 and HoxA9 mRNA levels after 2 days of ISC-30 or DMSO (vehicle control) treatment in AT-1 cells (mouse MLL-AF9 leukemia cell line). (FIG. 15F) Growth analysis of AT-1 cells treated with DMSO or 10 μM ISC-30.”
ISC30 was titrated into the wells of a 384-well plate containing fluorescence polarization buffer (40 mM HEPES pH 7.9, 150 mM NaCl, 0.01% Triton-X-100, 10 mM 2-mercaptoethanol), FITC-MLL peptide (1.5 nM), and His-SUMO-Menin-Δ460-519 (5 nM). […]

[5] = test system: MDAH087 cells (p53 R248W, GOF p53); assay: Growth curve analysis of LFS MDAH087 cells; assay type: cell-based, human; settings: OICR-9429 2 μM or 4 μM, vs DMSO
Experimental: as §2, §3, §4

[6] = test system: AT-1 cells (MLL-AF9 leukemia cell line); assay: Growth analysis of AT-1 cells; assay type: cell-based, mouse; settings: 10 μM ISC-30 vs DMSO
Experimental: as §1, with “All measurements were blanked by subtracting the background signal taken from wells containing only buffer. mP=millipolarization.” left out, “menin.” for “menin. (FIG. 15E) HoxA5 and HoxA9 mRNA levels after 2 days of ISC-30 or DMSO (vehicle control) treatment in AT-1 cells (mouse MLL-AF9 leukemia cell line). (FIG. 15F) Growth analysis of AT-1 cells treated with DMSO or 10 μM ISC-30.”
200,000 cells were seeded on 950 mm^2 surface area (one well of 6-well plate) on Day 0. Cell number was measured every two days with Countess Automated Cell Counter (Life Technologies) following its standard procedure, and then 200,000 cells were plated back for the next counting. […]

[7] = test system: mll1 in MCF7 cells (WT p53); assay: mll1 mRNA (RT-qPCR) and MLL1 protein (western blot) upon Nutlin treatment in MCF7 cells; settings: Nutlin vs DMSO
Description: (FIG. 13B) RT-qPCR analysis of mRNA expression level changes upon DMSO or Nutlin treatment in MCF7 cells. (FIG. 13C) Western blot analysis of MLL1 protein levels upon DMSO or Nutlin treatment in MCF7 cells.

[8] = test system: H3K9ac in MDA468 cells (p53 R273H); assay: Western blot of H3K9ac in MDA468 cells with mutant p53 knockdown; assay type: cell-based, human; settings: etoposide treatment
Description: FIG. 4A depicts western blots depicting changes in histone modification (H3K4me3 and H3K9ac) in MDA468 cell line in response to control or p53 knockdown. FIG. 4B depicts the change in the abundance of H3K4me3 and H3K9ac following p53 GOF mutant knockdown, as well as the functional implication that the Rho and Ras pathways are most affected by p53 GOF mutant knockdown.
Experiments were next conducted to evaluate the functional outcomes of the p53 GOF regulation of histone modification. FIG. 4A (left) depicts a Western blot analysis of the MDA468 cell line in response to control or p53 knockdown. It is shown that H3K9Ac decreases in response to knockdown of mutant p53, but no other histone modifications appear to be affected.

## CN(CCN(C)c1ccc(N)cc1)c1ccc(N)cc1 [ISC-30, N,N′-bis(4-aminophenyl)-N,N′-dimethylethylenediamine]
[1]
  menin-MLL1 interaction at endogenous levels (co-IP): blocked menin-MLL1 interaction at endogenous levels in a dose-dependent manner
[2]
  expression of Hoxa cluster genes (HoxA5 and HoxA9 mRNA levels): decreased expression of Hoxa cluster genes
[3]
  menin-MLL1 interaction at endogenous levels (co-IP): blocked menin-MLL1 interaction at endogenous levels in a dose-dependent manner
MDAH041 cells (p53 null)
  p53 null cell growth: very little effect
[4]
  concentration at which the compound started to inhibit menin-MLL1 interaction: approximately 2 μM
[4]; normalized IC50, read-out: IC50, inhibition of menin-MLL1 interaction
  pIC50: 4.49
[5]
  GOF p53 cell growth: dose-dependent inhibition
[6]
  growth of AT-1 cells: reduced

## CC1(C)CN=C(N2CCN(c3ncnc4sc(CC(F)(F)F)cc34)CC2)S1 [MI-2-2]
[5]
  GOF p53 cell growth: dose-dependent inhibition

## COc1ccc(C2=NC(c3ccc(Cl)cc3)C(c3ccc(Cl)cc3)N2C(=O)N2CCNC(=O)C2)c(OC(C)C)c1 (stereo not shown) [Nutlin]
[7]
  mll1 expression upon stabilization and elevation of WT p53 levels: not upregulated

## CN1CCN(c2ccc(-c3cccc(CN4CCOCC4)c3)cc2NC(=O)c2c[nH]c(=O)cc2C(F)(F)F)CC1 [OICR-9429]
MDAH041 cells (p53 null)
  p53 null cell growth: little effect
[5]
  GOF p53 cell growth: dose-dependent inhibition

## COc1cc([C@@H]2c3cc4c(cc3[C@@H](O[C@@H]3O[C@@H]5CO[C@@H](C)O[C@H]5[C@H](O)[C@H]3O)[C@H]3COC(=O)[C@H]23)OCO4)cc(OC)c1O [etoposide]
[8]
  loss of H3K9ac in response to knockdown of mutant p53: not affected
